Data taken from PubChem BioAssay AID1963846 (Molecular Pharmacology Branch, DTP, NCI, 2024).

Tested on: 454973-116-R2-J3-PDC complex spheroid viability
Experiment: Anticancer human tumor 454973-116-R2-J3-PDC patient-derived pancreatic carcinoma cell line growth inhibition [POLQ]
Details: for IC50: curve of first compound; for viability, T/C: stronger effect = lower value
Method in brief: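 Complex spheroid viability model combining PDC tumour cells with endothelial (HUVEC) and MSC stromal cells. Novobiocin, ART-558 or RP6685 were tested singly and in combination with standard and investigational anticancer drugs. Each was titrated in half-log steps from near clinical Cmax, or from 10 microM where Cmax was unknown.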

[1] = second compound 0.0316 µM, first compound 0.0316 µM
[2] = second compound 0.0316 µM, first compound 0.1 µM
[3] = second compound 0.0316 µM, first compound 0.316 µM
[4] = second compound 0.0316 µM, first compound 1 µM
[5] = second compound 0.0316 µM, first compound 3.16 µM
[6] = second compound 0.0316 µM, first compound 10 µM
[7] = second compound 0.1 µM, first compound 0.0316 µM
[8] = second compound 0.1 µM, first compound 0.1 µM
[9] = second compound 0.1 µM, first compound 0.316 µM
[10] = second compound 0.1 µM, first compound 1 µM
[11] = second compound 0.1 µM, first compound 3.16 µM
[12] = second compound 0.1 µM, first compound 10 µM
[13] = second compound 0.316 µM, first compound 0.0316 µM
[14] = second compound 0.316 µM, first compound 0.1 µM
[15] = second compound 0.316 µM, first compound 0.316 µM
[16] = second compound 0.316 µM, first compound 1 µM
[17] = second compound 0.316 µM, first compound 3.16 µM
[18] = second compound 0.316 µM, first compound 10 µM
[19] = second compound 1 µM, first compound 0.0316 µM
[20] = second compound 1 µM, first compound 0.1 µM
[21] = second compound 1 µM, first compound 0.316 µM
[22] = second compound 1 µM, first compound 1 µM
[23] = second compound 1 µM, first compound 3.16 µM
[24] = second compound 1 µM, first compound 10 µM
[25] = second compound 3.16 µM, first compound 0.0316 µM
[26] = second compound 3.16 µM, first compound 0.1 µM
[27] = second compound 3.16 µM, first compound 0.316 µM
[28] = second compound 3.16 µM, first compound 1 µM
[29] = second compound 3.16 µM, first compound 3.16 µM
[30] = second compound 3.16 µM, first compound 10 µM
[31] = second compound 10 µM, first compound 0.0316 µM
[32] = second compound 10 µM, first compound 0.1 µM
[33] = second compound 10 µM, first compound 0.316 µM
[34] = second compound 10 µM, first compound 1 µM
[35] = second compound 10 µM, first compound 3.16 µM
[36] = second compound 10 µM, first compound 10 µM
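Also: spheroids exposed to drugs for seven days before measurement.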
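For viability, T/C in this document: percent viability relative to DMSO vehicle control wells taken as 100%.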

Molecule CC1COCCN1c1cc(-c2ccnn2C)c2ccnc(-c3ccn[nH]3)c2n1 (stereo unspecified) + COC1C(OC(N)=O)C(O)C(Oc2ccc3c(O)c(NC(=O)c4ccc(O)c(CC=C(C)C)c4)c(=O)oc3c2C)OC1(C)C has an IC50 (second compound 0.0316 µM) of 205 nM, an IC50 (second compound 0.1 µM) of 217 nM and an IC50 (second compound 0.316 µM) of 209 nM. The IC50 (second compound 1 µM) was 220 nM, the IC50 (second compound 3.16 µM) was 223 nM and the IC50 (second compound 10 µM) was 198 nM. The viability, T/C [1] was 97%, the viability, T/C [2] was 71.8% and the viability, T/C [3] was 38.5%. It also gave a viability, T/C [4] of 19.2%, a viability, T/C [5] of 22.8% and a viability, T/C [6] of 25.9%. The viability, T/C [7] was 97.3%, the viability, T/C [8] was 75.7% and the viability, T/C [9] was 38%. For the same molecule, the viability, T/C [10] was 21.9%, the viability, T/C [11] was 20.1% and the viability, T/C [12] was 23.9%. It also gave a viability, T/C [13] of 97.8%, a viability, T/C [14] of 77.2% and a viability, T/C [15] of 35.4%. It also gave a viability, T/C [16] of 21.2%, a viability, T/C [17] of 23.2% and a viability, T/C [18] of 29.6%. For the same molecule, the viability, T/C [19] was 103%, the viability, T/C [20] was 79% and the viability, T/C [21] was 37.8%. The viability, T/C [22] was 18.8%, the viability, T/C [23] was 23.2% and the viability, T/C [24] was 26.6%. It also gave a viability, T/C [25] of 100%, a viability, T/C [26] of 77.9% and a viability, T/C [27] of 39%. It also gave a viability, T/C [28] of 20.4%, a viability, T/C [29] of 26.1% and a viability, T/C [30] of 27.9%. It also gave a viability, T/C [31] of 105%, a viability, T/C [32] of 70.8% and a viability, T/C [33] of 38%. The viability, T/C [34] was 16.7%, the viability, T/C [35] was 25.9% and the viability, T/C [36] was 33.7%.

With COc1ccc([C@@H](O)c2cc(-c3ncnc4cc(N5CCOCC5)ccc34)c(F)cc2Cl)nn1 + Cc1cccc(N(C)C(=O)C2C(O)CCN2c2nc(C)cc(C(F)(F)F)c2C#N)c1 the IC50 (second compound 0.0316 µM) was > 10000 nM, the IC50 (second compound 0.1 µM) was > 10000 nM and the IC50 (second compound 0.316 µM) was > 10000 nM. For the same molecule, the IC50 (second compound 1 µM) was > 10000 nM, the IC50 (second compound 3.16 µM) was > 10000 nM and the IC50 (second compound 10 µM) was > 10000 nM. For the same molecule, the viability, T/C [1] was 105%, the viability, T/C [2] was 114% and the viability, T/C [3] was 101%. The viability, T/C [4] was 92.5%, the viability, T/C [5] was 70.2% and the viability, T/C [6] was 56.4%. The viability, T/C [7] was 104%, the viability, T/C [8] was 99% and the viability, T/C [9] was 102%. For the same molecule, the viability, T/C [10] was 95.5%, the viability, T/C [11] was 71.1% and the viability, T/C [12] was 58%. It also gave a viability, T/C [13] of 107%, a viability, T/C [14] of 99.8% and a viability, T/C [15] of 103%. The viability, T/C [16] was 91.8%, the viability, T/C [17] was 76.2% and the viability, T/C [18] was 55%. It also gave a viability, T/C [19] of 109%, a viability, T/C [20] of 105% and a viability, T/C [21] of 107%. The viability, T/C [22] was 87.1%, the viability, T/C [23] was 71.5% and the viability, T/C [24] was 53.3%. For the same molecule, the viability, T/C [25] was 112%, the viability, T/C [26] was 101% and the viability, T/C [27] was 108%. The viability, T/C [28] was 87.7%, the viability, T/C [29] was 74.7% and the viability, T/C [30] was 58.4%. The viability, T/C [31] was 112%, the viability, T/C [32] was 99.9% and the viability, T/C [33] was 99.3%. It also gave a viability, T/C [34] of 84.5%, a viability, T/C [35] of 64.7% and a viability, T/C [36] of 59.8%.

CCc1c2c(nc3ccc(O)cc13)-c1cc3c(c(=O)n1C2)COC(=O)[C@]3(O)CC + Nc1ccc(C#CCN(C(=O)Cc2ncc(C(F)(F)F)cc2C(F)(F)F)c2ccc(F)cc2)nn1 was tested, and the IC50 (second compound 0.0316 µM) was < 3.16 nM, the IC50 (second compound 0.1 µM) was < 3.16 nM and the IC50 (second compound 0.316 µM) was < 3.16 nM. For the same molecule, the IC50 (second compound 1 µM) was < 3.16 nM, the IC50 (second compound 3.16 µM) was < 3.16 nM and the IC50 (second compound 10 µM) was < 3.16 nM. It also gave a viability, T/C (second compound 0.0316 µM, first compound 0.00316 µM) of 25.3%, a viability, T/C (second compound 0.0316 µM, first compound 0.01 µM) of 11.3% and a viability, T/C [1] of 6.56%. For the same molecule, the viability, T/C [2] was 4.56%, the viability, T/C [3] was 1.97% and the viability, T/C [4] was 1.11%. It also gave a viability, T/C (second compound 0.1 µM, first compound 0.00316 µM) of 19%, a viability, T/C (second compound 0.1 µM, first compound 0.01 µM) of 10.4% and a viability, T/C [7] of 6.53%. For the same molecule, the viability, T/C [8] was 3.88%, the viability, T/C [9] was 2.75% and the viability, T/C [10] was 1%. It also gave a viability, T/C (second compound 0.316 µM, first compound 0.00316 µM) of 19.8%, a viability, T/C (second compound 0.316 µM, first compound 0.01 µM) of 11.3% and a viability, T/C [13] of 8.55%. It also gave a viability, T/C [14] of 4.38%, a viability, T/C [15] of 2.3% and a viability, T/C [16] of 0.79%. The viability, T/C (second compound 1 µM, first compound 0.00316 µM) was 21.4%, the viability, T/C (second compound 1 µM, first compound 0.01 µM) was 8.67% and the viability, T/C [19] was 6.81%. It also gave a viability, T/C [20] of 3.42%, a viability, T/C [21] of 1.98% and a viability, T/C [22] of 0.59%. It also gave a viability, T/C (second compound 3.16 µM, first compound 0.00316 µM) of 18.6%, a viability, T/C (second compound 3.16 µM, first compound 0.01 µM) of 9.44% and a viability, T/C [25] of 7.09%. It also gave a viability, T/C [26] of 4.06%, a viability, T/C [27] of 2.05% and a viability, T/C [28] of 0.6%. It also gave a viability, T/C (second compound 10 µM, first compound 0.00316 µM) of 19%, a viability, T/C (second compound 10 µM, first compound 0.01 µM) of 10.2% and a viability, T/C [31] of 5.83%. It also gave a viability, T/C [32] of 2.67%, a viability, T/C [33] of 1.43% and a viability, T/C [34] of 0.54%.
